Target: Xanthine oxidase (from bovine milk, Sigma) (Bos taurus (Bovine), UniProt P80457)
Assay: Xanthine oxidase inhibitory activity
Format: biochemical
Conditions: 100 μM xanthine final, absorbance at 290 nm
Procedure: (1) Preparation of Test Compounds
Test compounds were dissolved in DMSO (Wako) at 40 mM concentration and then diluted to intended concentrations with phosphate-buffered saline (PBS).
(2) Method for Measurement
Xanthine oxidase (from bovine milk, Sigma) was prepared with phosphate-buffered saline (PBS) at 0.02 units/mL, and then the solution was added to 96 well plates at 50 μL/well. In addition, test compounds diluted with PBS were added at 50 μL/well. Xanthine (Wako) at 200 μM prepared with PBS was added at 100 μL/well, and the reaction was conducted for 10 minutes at room temperature. Absorbance at 290 nm was measured using a microplate reader SpectraMax Plus 384 (Molecular device). The absorbance under a condition without xanthine is 0%, and control without test compounds is 100%. Fifty % inhibitory concentration of a test compound (IC50) was calculated (Tables 91 to 92). Ex. No in the table indicates Example number.

Xanthine oxidase (from bovine milk, Sigma), sequence (P80457 whole entry): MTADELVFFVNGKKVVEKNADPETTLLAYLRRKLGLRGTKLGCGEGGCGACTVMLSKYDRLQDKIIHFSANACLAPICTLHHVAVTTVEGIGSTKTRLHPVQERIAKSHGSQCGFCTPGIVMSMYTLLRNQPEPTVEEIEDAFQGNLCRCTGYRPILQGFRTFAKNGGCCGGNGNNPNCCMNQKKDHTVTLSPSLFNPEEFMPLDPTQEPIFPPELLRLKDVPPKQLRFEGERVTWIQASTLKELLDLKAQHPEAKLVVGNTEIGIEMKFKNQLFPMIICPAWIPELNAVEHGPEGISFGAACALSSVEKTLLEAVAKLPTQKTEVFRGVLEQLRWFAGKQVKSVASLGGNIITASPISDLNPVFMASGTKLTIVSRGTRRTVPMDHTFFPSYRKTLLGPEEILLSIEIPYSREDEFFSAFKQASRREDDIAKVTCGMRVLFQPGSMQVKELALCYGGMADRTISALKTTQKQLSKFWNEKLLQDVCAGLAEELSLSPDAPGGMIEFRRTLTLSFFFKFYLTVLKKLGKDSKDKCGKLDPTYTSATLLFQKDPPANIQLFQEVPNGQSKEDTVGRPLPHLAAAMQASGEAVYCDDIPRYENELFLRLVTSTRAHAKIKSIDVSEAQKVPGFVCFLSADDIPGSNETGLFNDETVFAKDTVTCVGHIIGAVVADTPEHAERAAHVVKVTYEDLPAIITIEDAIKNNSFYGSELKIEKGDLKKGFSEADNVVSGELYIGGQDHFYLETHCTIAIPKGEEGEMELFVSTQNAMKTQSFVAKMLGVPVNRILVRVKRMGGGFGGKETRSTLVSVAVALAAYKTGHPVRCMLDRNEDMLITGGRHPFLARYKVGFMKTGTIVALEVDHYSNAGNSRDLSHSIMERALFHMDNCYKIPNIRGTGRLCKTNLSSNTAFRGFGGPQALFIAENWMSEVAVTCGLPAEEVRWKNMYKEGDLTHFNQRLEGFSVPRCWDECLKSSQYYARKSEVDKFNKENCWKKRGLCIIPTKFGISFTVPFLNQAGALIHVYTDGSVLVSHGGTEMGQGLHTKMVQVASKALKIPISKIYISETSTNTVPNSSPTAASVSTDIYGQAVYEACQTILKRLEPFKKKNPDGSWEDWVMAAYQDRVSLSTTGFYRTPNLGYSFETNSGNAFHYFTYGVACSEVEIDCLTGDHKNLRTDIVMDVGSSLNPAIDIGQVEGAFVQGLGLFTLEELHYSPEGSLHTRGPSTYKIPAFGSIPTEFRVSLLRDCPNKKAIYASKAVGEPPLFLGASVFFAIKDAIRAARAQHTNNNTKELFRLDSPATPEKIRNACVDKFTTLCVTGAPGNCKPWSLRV

IC50 [nM] | SMILES
9.7 | N#Cc1cn(-c2cc(C(=O)O)ccn2)cc1-c1ccc2c(c1)OCCO2 [Example 369]
5.2 | Cn1cc(-c2cn(-c3ccc(C(=O)O)c(O)c3)cc2C#N)c2ccccc21 [Example 292]
6.4 | CSc1ccccc1-c1cn(-c2ccc(C(=O)O)c(O)c2)cc1C#N [Example 349]
27.5 | COc1ccc2ccccc2c1-c1cn(-c2ccc(C(=O)O)c(O)c2)cc1C#N [Example 286]
35.9 | CCCOc1ccc(-c2cn(-c3ccc(C(=O)O)c(O)c3)cc2C#N)cc1 [Example 342]
10.9 | N#Cc1cn(-c2ccc(C(=O)O)c(O)c2)cc1-c1ccc2c(c1)OCO2 [Example 321]
6.9 | Cc1ccsc1-c1cn(-c2ccc(C(=O)O)c(O)c2)cc1C#N [Example 311]
16.8 | CC(C)Oc1ccc(-c2cn(-c3ccc(C(=O)O)c(O)c3)cc2C#N)cc1 [Example 346]
9.3 | COc1ccc(F)c(-c2cn(-c3ccc(C(=O)O)c(O)c3)cc2C#N)c1 [Example 284]
49.1 | N#Cc1cn(-c2ccc(C(=O)O)c(O)c2)cc1-c1cccc(Cl)c1 [Example 278]
6.5 | COc1ccccc1-c1cn(-c2ccc(C(=O)O)c(O)c2)cc1C#N [Example 309]
21.3 | Cc1ccc(-c2cn(-c3cc(C(=O)O)ccn3)cc2C#N)cc1 [Example 363]
22.7 | N#Cc1cn(-c2cc(C(=O)O)ccn2)cc1-c1ccccc1Cl [Example 364]
3.2 | CC(C)(C)c1nn(-c2ccc(C(=O)O)c(O)c2)cc1C#N [Example 352]
10.1 | N#Cc1cn(-c2ccc(C(=O)O)c(O)c2)cc1-c1cc(F)ccc1F [Example 277]
25.7 | COCCOc1cccc(-c2cn(-c3ccc(C(=O)O)c(O)c3)cc2C#N)c1 [Example 345]

IC50 [nM] | SMILES
51.5 | N#Cc1cn(-c2ccc(C(=O)O)c(O)c2)cc1-c1ccccc1OCc1ccccc1 [Example 332]
7.5 | N#Cc1cn(-c2ccc(C(=O)O)c(O)c2)cc1-c1ccccc1Cl [Example 308]
4.9 | N#Cc1cn(-c2ccc(C(=O)O)c(O)c2)nc1-c1ccccc1 [Example 302]
7.9 | N#Cc1cn(-c2ccc(C(=O)O)c(O)c2)cc1C(F)(F)F [Example 300]
10.4 | N#Cc1cn(-c2ccc(C(=O)O)c(O)c2)cc1/C=C/c1ccccc1 [Example 288]
8.4 | COc1cccc(-c2cn(-c3ccc(C(=O)O)c(O)c3)cc2C#N)c1 [Example 279]
15.1 | N#Cc1cn(-c2ccc(C(=O)O)c(O)c2)cc1-c1cccn1-c1ccccc1 [Example 304]
15.6 | Cc1cccc(-c2cn(-c3ccc(C(=O)O)c(O)c3)cc2C#N)c1 [Example 280]
49.4 | N#Cc1cn(-c2ccc(C(=O)O)c(O)c2)cc1-c1ccccc1Oc1ccccc1 [Example 303]
66.7 | N#Cc1ccn(-c2ccc(C(=O)O)c(O)c2)n1 [Example 354]
25 | COc1cccc(-c2cn(-c3cc(C(=O)O)ccn3)cc2C#N)c1 [Example 367]
13.1 | N#Cc1cn(-c2ccc(C(=O)O)c(O)c2)cc1-c1cccc2ccccc12 [Example 325]
3.9 | COc1ccc(-c2cn(-c3ccc(C(=O)O)c(O)c3)cc2C#N)cc1OC [Example 285]
88.5 | Cc1ccccc1-c1cn(-c2cc(C(=O)O)ccn2)cc1C#N [Example 361]
10 | CCCOc1cccc(-c2cn(-c3ccc(C(=O)O)c(O)c3)cc2C#N)c1 [Example 341]

Same assay, conditions: 0.02 units/mL, xanthine 200 μM, 10 minutes at room temperature, absorbance at 290 nm

IC50 [nM] | SMILES
7.2 | COCCNC(=O)c1cn(-c2ccc(C(=O)O)cc2)cc1C#N [Example 229]
56.8 | Cc1ccc(COc2ccccc2-c2cn(-c3ccc(C(=O)O)cc3)cc2C#N)cc1 [Example 169]
52.9 | N#Cc1cn(-c2ccc(C(=O)O)cc2)cc1-c1cccc(OCc2ccccc2)c1 [Example 156]
13.3 | COc1ccc(-c2cn(-c3ccc(C(=O)O)c(O)c3)cc2C#N)cc1F [Example 268]
81.2 | Cc1cn(-c2ccc(C(=O)O)cc2)cc1C#N [Example 236]
45.4 | CCOC(=O)c1cn(-c2ccc(C(=O)O)cc2)cc1C(F)(F)F [Example 221]
5.2 | N#Cc1cn(-c2ccc(C(=O)O)c(F)c2)cc1-c1ccccc1 [Example 208]
5.1 | N#Cc1cn(-c2ccc(C(=O)O)cc2)cc1-c1ccccc1OCC(=O)O [Example 158]
26.9 | N#Cc1cn(-c2ccc(C(=O)O)cc2)cc1C(=O)N1CCOCC1 [Example 232]
11.1 | COc1cn(-c2ccc(C(=O)O)cc2)cc1C#N [Example 220]
5 | N#Cc1cn(-c2ccc(C(=O)O)cc2)cc1-c1cccc(CO)c1 [Example 219]
116 | N#Cc1cn(-c2ccc(C(=O)O)cc2)cc1-c1cccc(OCc2cccc(F)c2)c1 [Example 190]
5 | N#Cc1cn(-c2ccc(C(=O)O)cc2)cc1-c1cccc(OCCCO)c1 [Example 150]
31.9 | N#Cc1cn(-c2ccc(C(=O)O)cc2)cc1-c1ccccc1-c1ccccc1 [Example 161]
120 | N#Cc1cn(-c2ccc(O)c(C(=O)O)c2)cc1-c1ccccc1 [Example 22, 5-(3-Cyano-4-phenylpyrrole-1-yl)-2-hydroxy-benzoic acid]
11.9 | N#Cc1cn(-c2ccc(C(=O)O)cc2)cc1COCc1ccccc1 [Example 248]
5.8 | COCOc1cccc(-c2cn(-c3ccc(C(=O)O)cc3)cc2C#N)c1 [Example 144]
55.1 | N#Cc1cn(-c2ccc(C(=O)O)cc2)cc1-c1cccc(-c2ccccc2)c1 [Example 162]
10.1 | N#Cc1cn(-c2ccc(C(=O)O)cc2)cc1-c1cccn1-c1ccccc1 [Example 255]
5 | N#Cc1cn(-c2ccc(C(=O)O)cc2)cc1-c1cccc(C(=O)O)c1 [Example 217]
83.8 | Cc1ccccc1COc1ccccc1-c1cn(-c2ccc(C(=O)O)cc2)cc1C#N [Example 167]
5.5 | N#Cc1cn(-c2ccc(C(=O)O)c(O)c2)cc1-c1ccccc1O [Example 12, 4-[3-Cyano-4-(2-hydroxyphenyl)pyrrole-1-yl]-2-hydroxy benzoic acid]

IC50 [nM] | SMILES
2.3 | CC(C)COc1cn(-c2ccc(C(=O)O)cc2)cc1C#N [Example 233]
255 | N#Cc1cn(-c2ccc(C(=O)O)cc2)cc1-c1ccccc1OCc1ccccc1C(F)(F)F [Example 180]
5.8 | N#Cc1cn(-c2ccc(C(=O)O)cc2)nc1OCc1ccccc1 [Example 7, 4-(3-Benzyloxy-4-cyanopyrazole-1-yl)benzoic acid]
33.8 | N#Cc1cn(-c2ccc(C(=O)O)cc2)cc1-c1ccc(OCc2ccccc2)cc1 [Example 157]
6 | N#Cc1cn(-c2ccc(C(=O)O)cc2)cc1-c1ccccc1OCCCO [Example 149]
2.5 | N#Cc1cn(-c2ccc(C(=O)O)cc2)cc1-c1ccc(O)cc1 [Example 148]
3.8 | N#Cc1cn(-c2ccc(C(=O)O)cc2)cc1CCc1ccccc1 [Example 207]
2.1 | N#Cc1cn(-c2ccc(C(=O)O)cc2)cc1-c1cccc(O)c1 [Example 147]
8.9 | CCCCCCc1cn(-c2ccc(C(=O)O)cc2)cc1C#N [Example 246]
13 | COCCN(C)C(=O)c1cn(-c2ccc(C(=O)O)cc2)cc1C#N [Example 230]
10.4 | COc1ccc(-c2cn(-c3ccc(C(=O)O)c(O)c3)cc2C#N)c(OC)c1 [Example 266]
7.1 | N#Cc1cn(-c2ccc(C(=O)O)cc2)cc1-c1cccc2ccccc12 [Example 209]
25.6 | N#Cc1cn(-c2ccc(C(=O)O)cc2)cc1-c1ccc2ccccc2c1 [Example 250]
5.1 | N#Cc1cn(-c2ccc(C(=O)O)cc2)cc1-c1ccc(C(=O)O)cc1 [Example 210]
6.6 | N#Cc1cn(-c2ccc(C(=O)O)cc2F)cc1-c1ccccc1 [Example 203]
132 | Cc1ccc(COc2cccc(-c3cn(-c4ccc(C(=O)O)cc4)cc3C#N)c2)cc1 [Example 188]
13.9 | COCCOc1ccccc1-c1cn(-c2ccc(C(=O)O)c(O)c2)cc1C#N [Example 15, 4-{3-Cyano-4-[2-(2-methoxyethoxy)phenyl]pyrrole-1-yl}-2-hydroxy benzoic acid]
54.4 | N#Cc1cn(-c2ccc(C(=O)O)cc2)cc1-c1ccccc1OCc1ccccc1Cl [Example 177]
6 | COCCOc1cccc(-c2cn(-c3ccc(C(=O)O)cc3)cc2C#N)c1 [Example 202]
7.1 | N#Cc1cn(-c2ccc(C(=O)O)cc2)cc1/C=C/c1ccccc1 [Example 206]
11.1 | COCCOc1ccccc1-c1cn(-c2ccc(C(=O)O)cc2)cc1C#N [Example 201]
5.4 | N#Cc1ccc(-c2cn(-c3ccc(C(=O)O)cc3)cc2C#N)cc1 [Example 212]

Source: patent US9023882B2, “5-membered nitrogen containing heterocyclic derivatives and pharmaceutical compositions comprising the same” (Kissei Pharmaceutical Co., Ltd., priority 2007, dated 2015)
